# Experimental data from patent publication US4673684A, “Amide derivatives and 5-lipoxygenase inhibitors containing the same as an active ingredient” (Terumo Corporation, priority 1984, dated 1987).
# Target: T1, 5-lipoxygenase (Mus musculus, UniProt P48999)
# T1 construct: The supernatant is used as a 5-lipogenase enzyme solution; endogenous in cells
# T1 sequence (P48999 1-674): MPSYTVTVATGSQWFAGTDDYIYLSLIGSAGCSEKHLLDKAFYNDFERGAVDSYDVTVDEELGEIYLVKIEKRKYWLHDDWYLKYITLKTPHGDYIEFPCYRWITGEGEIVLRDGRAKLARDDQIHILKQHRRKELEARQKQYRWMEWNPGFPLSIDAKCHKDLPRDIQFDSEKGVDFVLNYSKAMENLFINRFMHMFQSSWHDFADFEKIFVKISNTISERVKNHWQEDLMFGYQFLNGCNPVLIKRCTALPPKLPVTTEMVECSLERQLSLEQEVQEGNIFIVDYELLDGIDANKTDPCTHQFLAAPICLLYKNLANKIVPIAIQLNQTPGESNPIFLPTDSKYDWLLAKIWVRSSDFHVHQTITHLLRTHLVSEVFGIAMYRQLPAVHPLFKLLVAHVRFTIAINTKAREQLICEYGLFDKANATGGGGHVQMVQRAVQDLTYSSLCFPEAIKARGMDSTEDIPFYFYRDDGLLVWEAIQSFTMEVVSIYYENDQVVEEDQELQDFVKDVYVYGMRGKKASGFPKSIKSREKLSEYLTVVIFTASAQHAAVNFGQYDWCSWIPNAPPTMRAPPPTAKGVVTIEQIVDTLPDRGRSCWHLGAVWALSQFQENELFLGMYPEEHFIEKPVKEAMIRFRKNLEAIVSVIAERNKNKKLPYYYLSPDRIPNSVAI
# Assay: 5-Lipoxygenase-inhibiting Activity (decrease in 5-HETE and LTB4 formed from radiolabelled arachidonic acid, enzyme solution from mouse mastcytoma cells P-815)
# Format: biochemical
# Settings: not given
# Experimental: Mouse mastcytoma cells P-815 are diluted in a culture solution, containing 90% Eagle Basic Medium (manufactured by Gibco Laboratories) to 5×10^4 cells/ml. The diluted solution is cultivated with shaking in air at 37° C. for 48 hours. Then, the culture solution is cooled with ice and centrifuged to collect the cells. The cells are suspended in a phosphate buffer solution at pH 7.4 at a concentration of 2×10^7 cells/ml. The suspension is treated in a ultrasonic cell disintegrater and then centrifuged at 10,000 r.p.m. for 10 min. The supernatant is used as a 5-lipogenase enzyme solution. In test tubes are placed 20 μl of radiolabelled arachidonic acid ([…]), indomethacin (2×10^-8 mol) and an amide derivative to be tested, respectively. To each of the test tubes are added 0.45 ml of a phosphate buffer solution, 0.45 ml of the above-prepared suspension, 0.45 ml of the above-prepared enzyme solution and 0.1 ml of 8 mM CaCl2 (calcium chloride). The mixture is reacted at 37° C. for 5 min. After cooled with ice, 60 μl of 1N-HCl (hydrochloric acid is added to the reaction mixture, which is then extracted with 8 ml of ethyl acetate. The extract is concentrated, and the concentrate is developed by spotting on a silica gel thin layer plate (Merck 60F 254). Measurement of the inhibitory activity is made by collecting fractions corresponding to lipoxygenase products 5-HETE (5(s)-hydroxy-6,8,11,14-eicosatetraenic acid) and LTB4 (leucotriene B4) and determining the radioactivity by a liquid scintillation counter. The lipoxygenase inhibiting activity is determined by decrease in the amount of the above-mentioned 5-lipoxygenaseproducts. […] 50% inhibitory concentration or 30% inhibitory concentration as indicated in the table means the concentration of an amide derivative required for reducing the amount of the above-mentioned 5-lipoxygenase products (5-HETE and LTB4) to 50% or 30% of the amount when the amount of 5-HETE and LTB4 produced in the absenced of the amide derivative is 100%.
row,SMILES,IC50 [nM]
1,"COc1ccc(/C=C/C(=O)N2CCN(CCOC(c3ccccc3)c3ccccc3)CC2)cc1OC [Example 76, N-[3-(3,4-dimethoxyphenyl) -2-propenoyl]-N'-(2-benzhydroxyethyl)piperazine]",20000
2,"COc1cc(/C=C/C(=O)N2CCN(CCOC(c3ccccc3)c3ccccc3)CC2)cc(OC)c1O [Example 79, N-[3-(3,5-dimethoxy-4-hydroxyphenyl) -2-propenoyl]-N'-(2-benzhydroxyethyl)piperazine]",40
3,"O=C(/C=C/C=C/c1ccc(O)c(O)c1)N1CCN(CCOC(c2ccccc2)c2ccccc2)CC1 [Example 84, N-[5-(3,4-dihydroxyphenyl)-2,4-pentadienoyl]--N'-(2-benzhydroxyethyl)piperazine]",30

# Same assay, conditions: 5-HETE and LTB4 formation; mouse mastcytoma P-815 enzyme solution; 37° C., 5 min; pH 7.4; with indomethacin; read-out: 50% Inhibitory concentration IC50
row,SMILES,IC50 [nM]
1,"COc1cc(/C=C/C=C/C(=O)NCc2c(CO)cnc(C)c2O)cc(OC)c1O [Example 56, 4-[5-(3,5-dimethoxy-4-hydroxyphenyl)-2,4-pentadineoyl]aminomethyl-3-hydroxy-5-hydroxymethyl-2-methylpyridine]",1000
2,"COc1cc(/C=C/C=C/C(=O)Nc2ccccc2C(=O)O)cc(OC)c1O [Example 57, N-{5-(3,5-dimethoxy-4-hydroxyphenyl)-2,4-pentadienoyl}anthranilic acid]",400
3,"COc1cc(/C=C/C=C/C(=O)NCc2c(COC(=O)c3ccc(C)cc3)cnc(C)c2O)cc(OC)c1OC(=O)c1ccc(C)cc1 [Example 58, 4-{5-(3,5-dimethoxy-4-toluoxyphenyl)-2,4-pentadienoyl}aminomethyl-3-hydroxy-2methyl-5-toluoxymethylpyridine]",3000
4,"COc1cc(/C=C/C=C/C(=O)NCCN2CCN(C(c3ccccc3)c3ccccc3)CC2)cc(OC)c1OC [Example 59, N-[2-[5-(3,4,5-trimethoxyphenyl)-2,4-pentadienoyl]aminoethyl]-N'-benzhydrylpiperazine]",2000
5,"COc1cc(/C=C/C=C/C(=O)NCc2c(CO)cnc(C)c2O)cc(OC)c1OC [Example 60, 4-[5-(3,4,5-trimethoxyphenyl)-2,4-pentadienoyl]aminomethyl-3-hydroxy-5-hydroxymethyl-2-methylpyridine]",100000
6,"O=C(/C=C/C=C/c1ccc2c(c1)OCO2)NCCN1CCN(C(c2ccccc2)c2ccccc2)CC1 [Example 61, N-[2-[5-(3,4-methylenedioxyphenyl)-2,4-pentadienoyl]aminoethyl]-N'-benzhydrylpiperazine]",3000
7,"O=C(/C=C/C=C/c1ccc2c(c1)OCO2)NCCCN1CCN(C(c2ccccc2)c2ccccc2)CC1 [Example 62, N-[3-[5-(3,4,-methylenedioxyphenyl)-2,4-pentadienoyl]aminopropyl]-N'-benzhydrylpipeerazine]",2000
8,O=C(/C=C/c1ccc(O)c(O)c1)NCCCCN1CCN(C(c2ccccc2)c2ccc(Cl)cc2)CC1 (stereo not drawn) [Example 63],50
9,"O=C(/C=C/c1ccc(O)c(O)c1)NCCCCN1CCN(C(c2ccccc2)c2ccccc2)CC1 [Example 64, N-[4-[3-,4-(3,4-dihydroxyphenyl)-2-propenoyl]aminobutyl]N'-benzhydrylpiperazine]",30
10,"Cn1c(=O)c2c(ncn2CCNC(=O)/C=C/c2ccc(O)c(O)c2)n(C)c1=O [Example 65, 7-[2-[3-(3,4-dihydroxy)phenyl-2-propenoyl]aminoethyl]theophilline]",2000
11,"O=C(/C=C/c1ccc(O)c(O)c1)N1CCN(CCOC(c2ccccc2)c2ccccc2)CC1 [Example 66, N-[3-(3,4-dihydroxyphenyl)-2-propenoyl]-N'-(2-benzhydroxyethyl)]",30
12,"O=C(/C=C/c1ccc(O)c(O)c1)NCCOC(c1ccccc1)c1ccccc1 [Example 67, 2-[3-(3,4-dihydroxy)phenyl-2-propenoyl]aminoethyl benzhydryl ether]",30
13,COc1cc(/C=C/C(=O)NCCCCN2CCN(C(c3ccccc3)c3ccccc3)CC2)ccc1O [Example 68],40
14,"COc1cc(/C=C/C(=O)NCCn2cnc3c2c(=O)n(C)c(=O)n3C)ccc1O [Example 69, 7-[2-[3-(3-methoxy-4-hydroxy)phenyl-2-propenoyl]aminoethyl]theophylline]",6000
15,COc1cc(/C=C/C(=O)N2CCN(CCOC(c3ccccc3)c3ccccc3)CC2)ccc1O [Example 70],600
16,"COc1cc(/C=C/C(=O)N2CCN(CCCOC(c3ccccc3)c3ccccc3)CC2)ccc1O [Example 71, N-[3-(3-methoxy-4-hydroxy)phenyl-2-propenoyl]-(3-benzhydroxypropyl)piperazine]",600
17,"COc1cc(/C=C/C(=O)NCCOC(c2ccccc2)c2ccccc2)ccc1O [Example 72, 2-[3-(3-methoxy-4-hydroxy)phenyl-2-propenoyl]aminoethyl benzhydryl ether]",900
18,"COc1cc(/C=C/C(=O)NCCCOC(c2ccccc2)c2ccccc2)ccc1O [Example 73, 3-[3-[3-methoxy-4-hydroxyphenyl)-2-propenoyl]aminopropyl benzhydryl ether]",700
19,"COc1ccc(/C=C/C(=O)NCCCCN2CCN(C(c3ccccc3)c3ccccc3)CC2)cc1OC [Example 74, N-[4-[3-(3,4-dimethoxyphenyl)-2-propenoyl]aminobutyl]-N'-benzhydrylpiperazine]",8000
20,"COc1ccc(/C=C/C(=O)NCCn2cnc3c2c(=O)n(C)c(=O)n3C)cc1OC [Example 75, 7-[2-[3-(3,4-dimethoxyphenyl) -2-porpenoyl]aminoethyl]theophylline]",20000
21,"COc1ccc(/C=C/C(=O)NCCOC(c2ccccc2)c2ccccc2)cc1OC [Example 77, 2-[3-(3,4-dimethoxyphenyl)-2-propenoyl]aminoethyl benzhydryl ether]",10000
22,"COc1cc(/C=C/C(=O)NCCCCN2CCN(C(c3ccccc3)c3ccccc3)CC2)cc(OC)c1O [Example 78, N-benzyhdryl-N'-3-(3,5-dimethoxy-4-hydroxy)phenyl-2-propenoylaminobutylpiperazine]",30
23,"COc1cc(/C=C/C(=O)N2CCN(CCCOC(c3ccccc3)c3ccccc3)CC2)cc(OC)c1O [Example 80, N-[3-(3,5-dimethoxy-4-hydroxyphenyl) 2-propenoyl]-N'-(3-benzhydroxypropyl)piperazine]",30
24,"COc1cc(/C=C/C(=O)NCCOC(c2ccccc2)c2ccccc2)cc(OC)c1O [Example 81, 2-[3-(3,5-dimethoxy-4-hydroxy]phenyl-2-propenoyl) aminoethyl benzhydryl ether]",50
25,"O=C(/C=C/C=C/c1ccc(O)c(O)c1)NCCCCN1CCN(C(c2ccccc2)c2ccc(Cl)cc2)CC1 (stereo not drawn) [Example 82, N-(p-chlorobenzhydryl)-N'-[4-[5-(3,4-dihydreoxyphenyl) -2,4-pentadienoyl]aminobutyl]piperazine]",20
26,"O=C(/C=C/C=C/c1ccc(O)c(O)c1)NCCCCN1CCN(C(c2ccccc2)c2ccccc2)CC1 [Example 83, N-benzhydryl-N'-5-(3,4-dihydroxyphenyl)-2,4-pentadienoylaminobutylpiperazine]",40
27,"O=C(/C=C/C=C/c1ccc(O)c(O)c1)N1CCN(CCCOC(c2ccccc2)c2ccccc2)CC1 [Example 85, N-[5,[3,4-hydroxyphenyl]-2,4-pentadienoyl]-N'-(3-benzhydroxypropyl)piperazine]",30
28,COc1cc(/C=C/C=C/C(=O)NCCCCN2CCN(C(c3ccccc3)c3ccc(Cl)cc3)CC2)ccc1O (stereo not drawn) [Example 86],40
29,"COc1cc(/C=C/C=C/C(=O)NCCCCN2CCN(C(c3ccccc3)c3ccccc3)CC2)ccc1O [Example 87, N-benzhydryl-N'-[4-[5-(3-methoxy-4-hydroxyphenyl)-2,4-pentadienoyl]aminobutyl]piperzine]",60
30,COc1cc(/C=C/C=C/C(=O)NCCn2cnc3c2c(=O)n(C)c(=O)n3C)ccc1O [Example 88],4000
